Tests used:
Format in all cases: in vivo
[1] = system: Reticulitermes speratus; assay: Test Example 10: coated Japanese red pine wood block, termite mortality and weight loss after 24 days; conditions: wood block coated with 0.2% solution
Procedure: Mean weight loss (%) of the wood block=(W1−W2/W1)×100
A solution containing a sample compound in a predetermined concentration was coated by a paint brush in an amount of 110±10 mg on a rectangular parallelpiped wood block of Japanese red pine (20 mm×10 mm×10 mm). The treated wood block was naturally dried in a dark room of 25° C. for 14 days. Then, the treated wood block and a non-treated wood block were dried at a temperature of 60° C. for 72 hours, and their weights (W1) were measured, and they were used as test specimens. Such a test specimen was put into a cylindrical cup made of acrylic resin (i.e. a cup having a hole with a diameter of 10 mm formed in the bottom and having hard plaster (Dental Stone) set at the bottom in a thickness of 10 mm), and 150 termite workers and 10 termite soldiers (Reticulitermes speratus) were released thereon. The cup was placed in a container having wet cotton laid over the bottom, and the container was maintained at room temperature of 25° C. for 24 days, whereupon the mortality of termites in the cup was examined. Further, the test specimen was taken out from the cup, and the deposited substance was removed from the surface of the test specimen. After drying at a temperature of 60° C. for 72 hours, it was weighed to obtain the weight (W2), whereupon the mean weight loss was calculated.

[2] = system: Coptotermes formosanus; assay: Test Example 14: Japanese red pine poison bait, spread from bait-treated to non-treated termites; conditions: for Mortality TS (Termite soldiers): 5 non-treated soldiers; for Mortality TW (Termite workers): 5 treated + 5 non-treated workers
Procedure: A Japanese red pine poison bait chemical prepared in the same manner as in Test Example 13, was placed in a cylindrical cup made of acrylic resin (i.e. a cup having a hole with a diameter of 10 mm formed in the bottom and having hard plaster (Dental Stone) set at the bottom in a thickness of 10 mm), and 5 termite workers (Coptotermes formosanus) starved for 3 days, were released and permitted to ingest for 48 hours. Such bait-treated 5 alive termite workers were transferred together with non-treated 5 termite workers and 5 termite soldiers to a cup wherein a filter paper containing water was placed, and they were kept at room temperature of 25° C., whereby the number of dead termite workers and soldiers was examined as the time passed, and the mortality was calculated by the following formula.
Mortality of workers (%)=(number of dead termite workers/treated 5 termite workers+non-treated 5 termite workers)×100
Mortality of soldiers (%) (number of dead termite soldiers/non-treated 5 termite soldiers)×100

[3] = system: Reticulitermes speratus; assay: Test Example 15: fresh pulp poison bait, termite mortality after 18 days; conditions: fresh pulp bait 0.1%
Source text: (§1) Fresh pulp (2 cm×2 cm×0.1 cm) was immersed in a methanol solution of a sample compound. Then, it was dried to obtain a fresh pulp poison bait chemical containing 0.1% of the sample compound. This poison bait chemical was placed in a cylindrical cup made of acrylic resin (i.e. a cup having a hole with a diameter of 10 mm formed in the bottom and having hard plaster (Dental Stone) set at the bottom in a thickness of 10 mm), and 20 termite workers (Reticulitermes speratus) were released thereon. The cup was placed in a container having wet cotton laid over the bottom, and the container was maintained at room temperature of 25° C. for 18 days, whereupon the number of dead termites in the cup was examined, and the mortality was calculated.

[4] = system: Reticulitermes speratus; assay: Test Example 16: pulp (KIMUTAORU) poison bait, termite mortality after 18 days; conditions: pulp (KIMUTAORU) bait 0.1%
Source text: as §1
A test was carried out in the same manner as the above Test Example 15 except that fresh pulp was changed to pulp (KIMUTAORU, tradename, manufactured by CRECIA Co.).

[5] = system: Coptotermes formosanus; assay: Test Example 20: treated sandy soil, termite mortality and abnormal ratio with time
Procedure: Sandy soil passed through a sieve of 20 mesh, was dried at a temperature of 60° C. to a constant weight, and 4 g of the soil thus obtained, was packed into a cup having a diameter of 60 mm. 1 ml of a pesticide solution adjusted to a predetermined concentration was added and thoroughly mixed, whereupon 15 termite workers (Coptotermes formosanus) were leased. The cup was placed in a container having wet cotton laid over the bottom, and the container was maintained at room temperature of 25° C., whereby the number of dead termites in the cup was examined as the time passed, and the mortality was calculated.

[6] = system: Lasius japonicus; assay: Test Example 22: cotton ball with compound in 10% cane sugar solution, ant mortality
Procedure: 10 Ants (Lasius japonicus) were put into a test tube together with a cotton ball impregnated with 0.5 ml of a solution containing a sample compound in a predetermined concentration and containing 10% of cane sugar. […]

[7] = system: Coptotermes formosanus; assay: Test Example 24: treated filter paper in Petri dish, termite mortality on 21st or 28th day; conditions: 21st day
Procedure: Mortality (%)=(Number of dead termite workers/15 termite workers)×100
Further, by the Colby's formula, the theoretical value (%) of mortality can be calculated. In a case where the actual mortality (%) is higher than the theoretical value (%), it can be said that the composition of the present invention has a synergistic effect for controlling the house insect pest.
A filter paper having a diameter of 80 mm was placed in a plastic Petri dish, and 1 ml of a pesticide solution having a predetermined concentration was dropped thereon, whereupon 10 termite workers (Coptotermes formosanus) were released, and a cover was put on the Petri dish. This plastic Petri dish was put in a container having wet cotton laid over the bottom and maintained at room temperature of 25° C. On 21 or 28th day after the treatment, the number of dead termites in the Petri dish was examined, and the mortality was calculated in the same manner as Test Example 1.

[8] = 1000 ppm solution, 4 Days later

## CC(=NN=C(Cc1ccc(C(F)(F)F)cc1)c1ccc(F)cc1)N(C)C [Compound No. II-2, [4′-fluoro-2-(4-trifluoromethylphenyl)acetophenone]N′-[1-(dimethylamino)ethylidene]hydrazone]
[1]
  Mean weight loss: 2.9%
  Mortality Termite soldiers: 100%
  Mortality Termite workers: 100%
[2]; bait 0.05%, 6 Days later
  Mortality TS (Termite soldiers): 0%
  Mortality TW (Termite workers): 30%
[2]; bait 0.05%, 8 Days later
  Mortality TS (Termite soldiers): 0%
  Mortality TW (Termite workers): 30%
[2]; bait 0.05%, 15 Days later
  Mortality TS (Termite soldiers): 40%
  Mortality TW (Termite workers): 70%
[2]; bait 0.1%, 6 Days later
  Mortality TS (Termite soldiers): 0%
  Mortality TW (Termite workers): 50%
[2]; bait 0.1%, 8 Days later
  Mortality TS (Termite soldiers): 20%
  Mortality TW (Termite workers): 60%
[2]; bait 0.1%, 15 Days later
  Mortality TS (Termite soldiers): 100%
  Mortality TW (Termite workers): 100%
[3]
  Mortality: 100%
[4]
  Mortality: 100%
[5]; 250 ppm solution, 1 Day later
  Mortality: 0%
[5]; 250 ppm solution, 4 Days later
  Mortality: 0%
  abnormal ratio: 7%
[5]; 250 ppm solution, 11 Days later
  Mortality: 100%
[5]; 1000 ppm solution, 1 Day later
  Mortality: 0%
[5]; [8]
  Mortality: 73%
  abnormal ratio: 27%
[5]; 1000 ppm solution, 11 Days later
  Mortality: 100%
[5]; 4000 ppm solution, 1 Day later
  Mortality: 0%
  abnormal ratio: 100%
[5]; 4000 ppm solution, 4 Days later
  Mortality: 100%
[5]; 4000 ppm solution, 11 Days later
  Mortality: 100%
[6]; 10 ppm, 1 Day later
  Mortality: 0%
[6]; 10 ppm, 2 Days later
  Mortality: 0%
  abnormal ratio: 20%
[6]; 10 ppm, 3 Days later
  Mortality: 40%
[6]; 10 ppm, 8 Days later
  Mortality: 80%
[6]; 10 ppm, 11 Days later
  Mortality: 100%
[6]; 50 ppm, 1 Day later
  Mortality: 30%
  abnormal ratio: 70%
[6]; 50 ppm, 2 Days later
  Mortality: 100%
[6]; 50 ppm, 3 Days later
  Mortality: 100%
[6]; 50 ppm, 8 Days later
  Mortality: 100%
[6]; 50 ppm, 11 Days later
  Mortality: 100%
[7]; II-2 5 ppm alone
  Mortality: 0%
[7]; II-2 10 ppm alone
  Mortality: 20%
[7]; II-2 20 ppm alone
  Mortality: 60%

Source: patent US7655677B2, “Composition and method for controlling house insect pest” (priority 2002, dated 2010)
